# Laboratory results published in patent publication US5380732A, “Pesticidal compounds” (priority 1986, dated 1995).
# Columns and labels:
# Assay type in all cases: in vivo
# [1] = tested on: Tetranychus urticae; assay: leaf discs of infested french bean sprayed (Example C); conditions: 2 days, 25° C.
# Procedure: (§1) The compounds of the invention were tested by dissolving them in acetone (5%) and then diluting in water/`Synperonic` (94.5%/0.5%) to give a water emulsion. ("Synperonic" is a R.T.M. of I.C.I. plc and is nonylphenol ethoxylate in aqueous solution to give 27%; available from B.D.H., Poole, Dorset, England). The solution was then used to treat the following insects.
# Leaf discs of infested french bean were sprayed with the solution containing the compound. Mortality was assessed after 2 days at 25° C.
# [2] = tested on: C. quinquefasciatus; assay: track-spray of acetone-water solution, C. quinquefasciatus (Example A); conditions: acetone-water (5:95)
# Procedure: (§2) The compound of Example 1 was administered in acetone-water (5:95) by track-spray to a range of insect and acarine species, giving the following results.
# [3] = tested on: Myzus persicae; assay: adult Myzus on chinese cabbage leaf disc sprayed (Example C); conditions: 2 days, 25° C.
# Procedure: as §1
# 10 adult Myzus were placed on a leaf disc of chinese cabbage. 24 hours later the disc was sprayed with the solution containing the compound. Mortality was assessed after 2 days at 25° C.
# [4] = tested on: S. granarius; assay: track-spray of acetone-water solution, S. granarius (Example A); conditions: acetone-water (5:95)
# Procedure: as §2
# [5] = tested on: A. aegypti (larvae); assay: track-spray of acetone-water solution, A. aegypti larvae (Example A); conditions: acetone-water (5:95)
# Procedure: as §2
# [6] = tested on: T. castaneum; assay: track-spray of acetone-water solution, T. castaneum (Example A); conditions: acetone-water (5:95)
# Procedure: as §2
# [7] = tested on: M. domestica; assay: track-spray of acetone-water solution, M. domestica (Example A); conditions: acetone-water (5:95)
# Procedure: as §2
# [8] = tested on: Plutella xylostella; assay: fourth instar Plutella larvae sprayed and added to sprayed chinese cabbage leaf (Example C); conditions: 2 days, 25° C.
# Procedure: as §1
# 7 Fourth instar Plutella larvae were sprayea with the solution containing the compound and added to a chinese cabbage leaf which had been similarly sprayed and left to dry. Mortality was assessed after 2 days at 25° C.
# [9] = tested on: Musca domestica; assay: spray onto 20 female Musca, mortality after 2 days (Example C); conditions: 25° C.
# Procedure: as §1
# 20 female Musca were contained in a cardboard cylinder with gauze over either end. Solution containing the compound was sprayed onto the insects so enclosed and mortality assessed after 2 days at 25° C.
# [10] = tested on: Spodoptera littoralis; assay: injection into fifth instar Spodoptera littoralis larvae (Example D); conditions: 5% solution in DMSO/acetone (50:50), 1.0 ul injected, 2 days, 25° C.
# Procedure: The compounds of the invention were also tested by dissolving them in DMSO/acetone (50:50) to give a 5% solution, 1.0 ul of which was injected into fifth instar Spodoptera littoralis larvae. Mortality was assessed after 2 days at 25° C.
# [11] = tested on: Sitophilus granarius; assay: adults on treated wheat, mortality after 6 days, Sitophilus (Example C); conditions: 25° C.
# Procedure: as §1
# (§3) 20 adult Sitophilus and Tribolium were added to 10 g wheat which had been previously treated with 2 ml of the solution containing the compound. Mortality was assessed after 6 days at 25° C.
# [12] = tested on: Tribolium castaneum; assay: adults on treated wheat, mortality after 6 days, Tribolium (Example C); conditions: at 1000 ppm, 25° C.
# Procedure: as §1, §3
# [13] = tested on: Plutella xylostella; assay: discs of chinese cabbage infested with second instar Plutella larvae sprayed (Example C); conditions: at 200 ppm, 2 days, 25° C.
# Procedure: as §1
# or Discs of chinese cabbage infested with c8 second instar Plutella larvae were sprayed with the solution containing the compound. Mortality was assessed after 2 days at 25° C.
structure (smiles),measurement,setting,value
"CC(C)CNC(=O)C=CC=CCCCCCCCOc1cccc(Cl)n1 [Example 1, N-Isobutyl 12-(6'-chloro-2'-pyridyloxy)dodeca-2,4-dienamide]",active (mortality),[1]; at 1000 ppm,active
same,LD50,[2],> 1000 ppm
same,active (mortality),[3]; at 200 ppm,active
same,LD50,[4],> 1000 ppm
same,LD50,[5],> 1000 ppm
same,LD50,[6],> 1000 ppm
same,LD50,[7],about 200 ppm
same,active (mortality),[8]; at 1000 ppm,active
same,active (mortality),[9]; at 200 ppm,active
"CC(C)CNC(=O)/C=C/C=C/CCCCCCCOc1cccc(C(F)(F)F)n1 [Example 3, (2E,4E) N-isobutyl 12-(6trifluoromethyl-2'-pyridyloxy) dodeca-2,4-dienamide]",active (mortality),[1]; at 1000 ppm,active
same,active (mortality),[9]; at 200 ppm,active
CCC(C)NC(=O)C=CC=CCCCCCCCOc1cccc(C(F)(F)F)n1 (stereo not shown) [Example 4],active (mortality),[1]; at 1000 ppm,active
same,active (mortality),[9]; at 200 ppm,active
CC(C)CNC(=O)C=CC=CCCCCCCCOc1ccc(C(F)(F)F)cn1 [Example 6],active (mortality),[9]; at 1000 ppm,active
CC(C)CNC(=O)C=CC=CCCCCCCCOc1ncccc1C(F)(F)F [Example 7],active (mortality),[10],active
same,active (mortality),[8]; at 1000 ppm,active
CC(C=CCCCCCCCOc1cccc(C(F)(F)F)n1)=CC(=O)NCC(C)C [Example 8],active (mortality),[1]; at 200 ppm,active
same,active (mortality),[10],active
same,active (mortality),[8]; at 200 ppm,active
same,active (mortality),[9]; at 1000 ppm,active
CC(C=CCCCCCCCOc1cccc(Cl)n1)=CC(=O)NCC(C)C [Example 9],active (mortality),[1]; at 200 ppm,active
same,active (mortality),[8]; at 200 ppm,active
same,active (mortality),[9]; at 1000 ppm,active
CC(C)CNC(=O)C=CC=CCCCCCCCOc1cc(C(F)(F)F)cc(Cl)n1 [Example 10],active (mortality),[11],active
same,active (mortality),[9]; at 1000 ppm,active
CC(C=CCCCCCCCOc1cc(C(F)(F)F)cc(Cl)n1)=CC(=O)NCC(C)C [Example 11],active (mortality),[1]; at 1000 ppm,active
same,active (mortality),[10],active
same,active (mortality),[8]; at 1000 ppm,active
same,active (mortality),[9]; at 1000 ppm,active
CC(C)CNC(=O)C=CC=CCCCCCCCOc1ncccc1Cl [Example 12],active (mortality),[3]; at 1000 ppm,active
CCC(C)NC(=O)C=C(C)C=CCCCCCCCOc1ncccc1Cl (stereo not shown) [Example 13],active (mortality),[3]; at 200 ppm,active
CC(C)CNC(=O)C=CC=CCCCCCOc1cccc(Cl)n1 [Example 14],active (mortality),[3]; at 1000 ppm,active
CC(C)CNC(=O)C=CC=CCCCCCCCOc1ccccn1 [Example 15],active (mortality),[3]; at 200 ppm,active
CCC(C)NC(=O)C=CC=CCCCCCCCOc1ccccn1 (stereo not shown) [Example 16],active (mortality),[3]; at 200 ppm,active
same,active (mortality),[9]; at 1000 ppm,active
CC(C)CNC(=O)C=CC=CCCCCCCCOc1ccc(Cl)cn1 [Example 17],active (mortality),[1]; at 1000 ppm,active
same,active (mortality),[12],active
same,active (mortality),[8]; at 200 ppm,active
same,active (mortality),[9]; at 200 ppm,active
CC(C=CCCCCCCCOc1ccc(Cl)cn1)=CC(=O)NCC(C)C [Example 18],active (mortality),[1]; at 1000 ppm,active
same,active (mortality),[3]; at 1000 ppm,active
same,active (mortality),[8]; at 1000 ppm,active
same,active (mortality),[9]; at 1000 ppm,active
"CC(C)CNC(=O)/C=C/C=C/CCCCCCCOc1cc(C(F)(F)F)cc(C(F)(F)F)n1 [Example 19, (2E,4E) N-isobutyl 12-(4',6'-bistrifluoromethyl-2'-pyridyloxy) -dodeca-2,4-dienamide]",active (mortality),[11],active
same,active (mortality),[9]; at 200 ppm,active
same,active (mortality),[13],active
